The text below walks through data of US6610853B1, “N-(phenylsulfonyl)picolinamide derivatives, process for producing the same, and herbicide” (Kureha Kagaku Kogyo K.K., priority 2000, dated 2003).

Holding throughout (test): Test on herbicidal activity by foliar application
Common to all, as to assay type: in vivo
What all share (conditions): foliar spray, 1 kg/ha, plants at 1-2 leaf stage in pots, evaluated 14 days after spraying

In one assay the test system is Galium aparine. The method, boiled down:
(§1)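 Foliar spray, 1 kg/ha, wettable powder in solution; pot plants at 1-2 leaf stage. Read at 14 d. Score 1-5 (<30%, 30-50%, 50-70%, 70-90%, ≥90% inhibition).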

In another assay the test system is Sinapis arvensis. An outline of the steps: as §1
In a further assay the test system is Matricaria chamomilla. An outline of the steps: as §1
For another assay, the system named is Convolvulus arvensis. An outline of the steps: as §1
A further assay concerns Setaria viridis. The method, boiled down:
as §1

In the next assay the test system is Veronica hederaefolia. An outline of the steps: as §1
Another assay relates to Amaranthus retroflexus. An outline of the steps:
as §1

A further assay concerns Solanum nigrum. The method, boiled down: as §1
For another assay, the system named is Bidens pilosa. The method, boiled down:
as §1

The subject of the next assay is Stellaria media. An outline of the steps: as §1
In a further assay the test system is Abutilon theophrasti. An outline of the steps:
as §1

Regarding `COc1ccc(C(=O)NS(=O)(=O)c2ccccc2S(C)(=O)=O)nc1Br` [Compound I-819, 6-Bromo-5-methoxy-N-[[2-(methylsulfonyl)-phenyl]sulfonyl]-2-pyridinecarboxamide], the “Herbicidal activity, Galium aparine” value in the assay on Galium aparine is reported as 4 (70% or more-90% inhibition). Further, in the assay on Sinapis arvensis, the “Herbicidal activity, Sinapis arvensis” value is 5 (90% or more inhibition). In addition, in the assay on Matricaria chamomilla, the “Herbicidal activity, Matricaria chamomilla” value is recorded as 5 (90% or more inhibition). Also, the “Herbicidal activity, Convolvulus arvensis” value in the assay on Convolvulus arvensis is 4 (70% or more-90% inhibition). In addition, the “Herbicidal activity, Setaria viridis” value with Setaria viridis is 5 (90% or more inhibition). Further, the “Herbicidal activity, Veronica hederaefolia” value in the assay on Veronica hederaefolia is reported as 3 (50% or more-70% inhibition). Besides, the “Herbicidal activity, Amaranthus retroflexus” value in the assay with Amaranthus retroflexus was 5 (90% or more inhibition). In addition, the “Herbicidal activity, Solanum nigrum” value in the assay on Solanum nigrum is 5 (90% or more inhibition). In the assay on Bidens pilosa, the “Herbicidal activity, Bidens pilosa” value is given as 5 (90% or more inhibition). The “Herbicidal activity, Stellaria media” value in the assay with Stellaria media is listed as 5 (90% or more inhibition). Further, the “Herbicidal activity, Abutilon theophrasti” value in the assay with Abutilon theophrasti is recorded as 5 (90% or more inhibition).

`COc1ccc(C(=O)NS(=O)(=O)c2ccccc2S(=O)(=O)N(C)OC)nc1Br` [Compound I-830, 6-Bromo-5-methoxy-N-[[2-(N-methyl-N-methoxyaminosulfonyl]phenyl]sulfonyl]-2-pyridinecarboxamide]: the “Herbicidal activity, Galium aparine” value in the assay on Galium aparine was 5 (90% or more inhibition). Besides, in the assay on Sinapis arvensis, the “Herbicidal activity, Sinapis arvensis” value is 5 (90% or more inhibition). Besides, the “Herbicidal activity, Matricaria chamomilla” value in the assay on Matricaria chamomilla is reported as 5 (90% or more inhibition). The “Herbicidal activity, Convolvulus arvensis” value in the assay on Convolvulus arvensis is reported as 5 (90% or more inhibition). The “Herbicidal activity, Setaria viridis” value in the assay with Setaria viridis was 4 (70% or more-90% inhibition). Further, the “Herbicidal activity, Veronica hederaefolia” value with Veronica hederaefolia is on record as 5 (90% or more inhibition). In the assay on Amaranthus retroflexus, the “Herbicidal activity, Amaranthus retroflexus” value is 5 (90% or more inhibition). Further, the “Herbicidal activity, Solanum nigrum” value with Solanum nigrum is 5 (90% or more inhibition). In addition, the “Herbicidal activity, Bidens pilosa” value in the assay with Bidens pilosa was 5 (90% or more inhibition). Moreover, in the assay with Stellaria media, the “Herbicidal activity, Stellaria media” value is 5 (90% or more inhibition). The “Herbicidal activity, Abutilon theophrasti” value with Abutilon theophrasti was 5 (90% or more inhibition).

`COc1cc(Cl)nc(C(=O)NS(=O)(=O)c2ccccc2S(=O)(=O)N(C)OC)c1` [Compound I-838, 6-Chloro-4-methoxy-N-[[2-(N-methyl-N-methoxyamino)sulfonyl]phenylsulfonyl]-2-pyridinecarboxamide]: the “Herbicidal activity, Galium aparine” value with Galium aparine is 5 (90% or more inhibition). For the same compound, in the assay with Sinapis arvensis, the “Herbicidal activity, Sinapis arvensis” value is listed as 5 (90% or more inhibition). Also, in the assay on Matricaria chamomilla, the “Herbicidal activity, Matricaria chamomilla” value was 5 (90% or more inhibition). The “Herbicidal activity, Convolvulus arvensis” value in the assay with Convolvulus arvensis is listed as 5 (90% or more inhibition). Also, the “Herbicidal activity, Setaria viridis” value in the assay on Setaria viridis is recorded as 5 (90% or more inhibition). Moreover, in the assay with Veronica hederaefolia, the “Herbicidal activity, Veronica hederaefolia” value is recorded as 4 (70% or more-90% inhibition). Besides, in the assay with Amaranthus retroflexus, the “Herbicidal activity, Amaranthus retroflexus” value was 4 (70% or more-90% inhibition). Moreover, the “Herbicidal activity, Solanum nigrum” value in the assay on Solanum nigrum was 5 (90% or more inhibition). Further, the “Herbicidal activity, Bidens pilosa” value in the assay on Bidens pilosa is listed as 5 (90% or more inhibition). For the same compound, the “Herbicidal activity, Stellaria media” value in the assay on Stellaria media is on record as 4 (70% or more-90% inhibition). Moreover, in the assay on Abutilon theophrasti, the “Herbicidal activity, Abutilon theophrasti” value is 5 (90% or more inhibition).

`COc1ccc(C(=O)NS(=O)(=O)c2ccccc2S(=O)(=O)N(C)C)nc1[N+](=O)[O-]` [Compound I-858, N-[[2-(N,N-Dimethylaminosulfonyl)phenyl]-sulfonyl]-5-methoxy-6-nitro-2-pyridinecarboxamide]: in the assay with Galium aparine, the “Herbicidal activity, Galium aparine” value is 5 (90% or more inhibition). Besides, the “Herbicidal activity, Sinapis arvensis” value in the assay on Sinapis arvensis is 5 (90% or more inhibition). Further, the “Herbicidal activity, Matricaria chamomilla” value in the assay on Matricaria chamomilla is 4 (70% or more-90% inhibition). The “Herbicidal activity, Convolvulus arvensis” value in the assay on Convolvulus arvensis is 5 (90% or more inhibition). Further, the “Herbicidal activity, Setaria viridis” value in the assay with Setaria viridis is on record as 5 (90% or more inhibition). Moreover, in the assay with Veronica hederaefolia, the “Herbicidal activity, Veronica hederaefolia” value is 4 (70% or more-90% inhibition). Moreover, the “Herbicidal activity, Amaranthus retroflexus” value with Amaranthus retroflexus is 5 (90% or more inhibition). Further, the “Herbicidal activity, Solanum nigrum” value in the assay on Solanum nigrum is 5 (90% or more inhibition). The “Herbicidal activity, Bidens pilosa” value in the assay with Bidens pilosa is 5 (90% or more inhibition). For the same compound, the “Herbicidal activity, Stellaria media” value in the assay with Stellaria media is listed as 5 (90% or more inhibition). Also, in the assay on Abutilon theophrasti, the “Herbicidal activity, Abutilon theophrasti” value is given as 5 (90% or more inhibition).

Take `COc1ccc(C(=O)NS(=O)(=O)c2ccccc2S(=O)(=O)N(C)C)nc1C` [Compound I-859, N-[[2-(N,N-Dimethylaminosulfonyl)phenyl]-sulfonyl]-6-methyl-5-methoxy-2-pyridinecarboxamide]: in the assay on Galium aparine, the “Herbicidal activity, Galium aparine” value is recorded as 5 (90% or more inhibition). The “Herbicidal activity, Sinapis arvensis” value in the assay on Sinapis arvensis is reported as 5 (90% or more inhibition). In the assay on Matricaria chamomilla, the “Herbicidal activity, Matricaria chamomilla” value is listed as 5 (90% or more inhibition). Also, the “Herbicidal activity, Convolvulus arvensis” value in the assay on Convolvulus arvensis is 4 (70% or more-90% inhibition). Besides, in the assay on Setaria viridis, the “Herbicidal activity, Setaria viridis” value is listed as 5 (90% or more inhibition). For the same compound, the “Herbicidal activity, Veronica hederaefolia” value in the assay with Veronica hederaefolia is recorded as 5 (90% or more inhibition). Further, the “Herbicidal activity, Amaranthus retroflexus” value in the assay with Amaranthus retroflexus was 5 (90% or more inhibition). In addition, the “Herbicidal activity, Solanum nigrum” value with Solanum nigrum is on record as 5 (90% or more inhibition). In the assay with Bidens pilosa, the “Herbicidal activity, Bidens pilosa” value is listed as 5 (90% or more inhibition). In the assay with Stellaria media, the “Herbicidal activity, Stellaria media” value is given as 5 (90% or more inhibition). Also, the “Herbicidal activity, Abutilon theophrasti” value in the assay with Abutilon theophrasti is reported as 5 (90% or more inhibition).

On to `CN(C)S(=O)(=O)c1ccccc1S(=O)(=O)NC(=O)c1cccc(Cl)n1` [Compound I-861, N-[[2-(N,N-Dimethylaminosulfonyl)phenyl]-sulfonyl)-6-chloro-2-pirydinecarboxamide], for which, in the assay on Galium aparine, the “Herbicidal activity, Galium aparine” value was 5 (90% or more inhibition). Moreover, the “Herbicidal activity, Sinapis arvensis” value in the assay on Sinapis arvensis is reported as 5 (90% or more inhibition). Also, the “Herbicidal activity, Matricaria chamomilla” value with Matricaria chamomilla is 5 (90% or more inhibition). Besides, the “Herbicidal activity, Convolvulus arvensis” value in the assay with Convolvulus arvensis is reported as 5 (90% or more inhibition). Moreover, in the assay with Setaria viridis, the “Herbicidal activity, Setaria viridis” value was 5 (90% or more inhibition). Moreover, the “Herbicidal activity, Veronica hederaefolia” value in the assay with Veronica hederaefolia is listed as 4 (70% or more-90% inhibition). The “Herbicidal activity, Amaranthus retroflexus” value in the assay with Amaranthus retroflexus is listed as 5 (90% or more inhibition). For the same compound, the “Herbicidal activity, Solanum nigrum” value with Solanum nigrum is on record as 5 (90% or more inhibition). For the same compound, the “Herbicidal activity, Bidens pilosa” value in the assay with Bidens pilosa is on record as 5 (90% or more inhibition). Besides, the “Herbicidal activity, Stellaria media” value with Stellaria media is 5 (90% or more inhibition). Moreover, the “Herbicidal activity, Abutilon theophrasti” value with Abutilon theophrasti is 5 (90% or more inhibition).

Turning to `COc1ccc(C(=O)NS(=O)(=O)c2ccccc2S(=O)(=O)N(C)C)nc1` [Compound I-864], the “Herbicidal activity, Galium aparine” value with Galium aparine is 4 (70% or more-90% inhibition). Besides, the “Herbicidal activity, Sinapis arvensis” value in the assay with Sinapis arvensis is 5 (90% or more inhibition). The “Herbicidal activity, Matricaria chamomilla” value in the assay on Matricaria chamomilla is 5 (90% or more inhibition). For the same compound, the “Herbicidal activity, Convolvulus arvensis” value in the assay on Convolvulus arvensis is 3 (50% or more-70% inhibition). Moreover, the “Herbicidal activity, Setaria viridis” value in the assay on Setaria viridis is 4 (70% or more-90% inhibition). For the same compound, the “Herbicidal activity, Veronica hederaefolia” value in the assay on Veronica hederaefolia is given as 4 (70% or more-90% inhibition). In addition, in the assay with Amaranthus retroflexus, the “Herbicidal activity, Amaranthus retroflexus” value is listed as 3 (50% or more-70% inhibition). Also, the “Herbicidal activity, Solanum nigrum” value with Solanum nigrum is 4 (70% or more-90% inhibition). Also, the “Herbicidal activity, Bidens pilosa” value in the assay with Bidens pilosa is on record as 5 (90% or more inhibition). For the same compound, the “Herbicidal activity, Stellaria media” value with Stellaria media is 5 (90% or more inhibition). The “Herbicidal activity, Abutilon theophrasti” value in the assay with Abutilon theophrasti was 5 (90% or more inhibition).

As for `Cc1nc(C(=O)NS(=O)(=O)c2ccccc2S(=O)(=O)N(C)C)ccc1[N+](=O)[O-]` [Compound I-868, N-[[2-(N,N-Dimethylaminosulfonyl)phenyl]-sulfonyl]-6-methyl-5-nitro-2-pyridinecarboxamide], the “Herbicidal activity, Galium aparine” value with Galium aparine was 5 (90% or more inhibition). For the same compound, the “Herbicidal activity, Sinapis arvensis” value in the assay on Sinapis arvensis was 5 (90% or more inhibition). In addition, the “Herbicidal activity, Matricaria chamomilla” value in the assay on Matricaria chamomilla is given as 2 (30% or more-50% inhibition). Moreover, in the assay on Convolvulus arvensis, the “Herbicidal activity, Convolvulus arvensis” value is recorded as 3 (50% or more-70% inhibition). Also, the “Herbicidal activity, Setaria viridis” value in the assay with Setaria viridis is on record as 3 (50% or more-70% inhibition). Besides, the “Herbicidal activity, Veronica hederaefolia” value in the assay on Veronica hederaefolia is listed as 3 (50% or more-70% inhibition). In the assay with Amaranthus retroflexus, the “Herbicidal activity, Amaranthus retroflexus” value is 3 (50% or more-70% inhibition). In addition, the “Herbicidal activity, Solanum nigrum” value with Solanum nigrum is 4 (70% or more-90% inhibition). For the same compound, the “Herbicidal activity, Bidens pilosa” value in the assay on Bidens pilosa is 5 (90% or more inhibition). Also, the “Herbicidal activity, Stellaria media” value in the assay on Stellaria media is recorded as 4 (70% or more-90% inhibition). For the same compound, the “Herbicidal activity, Abutilon theophrasti” value in the assay with Abutilon theophrasti is given as 3 (50% or more-70% inhibition).

In the case of `COc1cc(Cl)nc(C(=O)NS(=O)(=O)c2ccccc2S(=O)(=O)N(C)C)c1` [Compound I-885, 6-Chloro-4-methoxy-N-[[2-(N,N-dimethylaminosulfonyl)phenyl]sulfonyl]-2-pyridinecarboxamide], in the assay on Galium aparine, the “Herbicidal activity, Galium aparine” value is given as 5 (90% or more inhibition). The “Herbicidal activity, Sinapis arvensis” value in the assay on Sinapis arvensis is reported as 5 (90% or more inhibition). The “Herbicidal activity, Matricaria chamomilla” value in the assay with Matricaria chamomilla is given as 5 (90% or more inhibition). Moreover, the “Herbicidal activity, Convolvulus arvensis” value in the assay on Convolvulus arvensis is listed as 5 (90% or more inhibition). Also, the “Herbicidal activity, Setaria viridis” value in the assay on Setaria viridis is given as 5 (90% or more inhibition). Also, in the assay with Veronica hederaefolia, the “Herbicidal activity, Veronica hederaefolia” value is given as 4 (70% or more-90% inhibition). Besides, in the assay on Amaranthus retroflexus, the “Herbicidal activity, Amaranthus retroflexus” value was 5 (90% or more inhibition). Also, the “Herbicidal activity, Solanum nigrum” value in the assay with Solanum nigrum is 5 (90% or more inhibition). Further, the “Herbicidal activity, Bidens pilosa” value in the assay with Bidens pilosa is given as 5 (90% or more inhibition). In addition, the “Herbicidal activity, Stellaria media” value in the assay with Stellaria media is 5 (90% or more inhibition). Besides, the “Herbicidal activity, Abutilon theophrasti” value in the assay on Abutilon theophrasti is listed as 5 (90% or more inhibition).
